From ChEMBL document CHEMBL4038271, “Therapeutic potentials of baicalin and its aglycone, baicalein against inflammatory disorders” (Eur J Med Chem, 2017)
≈ marks a conversion by molar mass, not a printed value.

What was measured:
SH-SY5Y [1] = assay: Neuroprotective activity against 6-OHDA-induced cell death in human SH-SY5Y cells assessed as apoptotic cells at 0.5 ug/ml pretreated for 1 hr followed by 6-OHDA challenge measured after 24 hrs by propidium iodide/RNase staining based flow cytometry (reference value: 31.56 %); format: functional
[2] = Tmax in Sprague-Dawley rat at 224 umol/kg, po administered via gastric gavage; format: ADME, organism-based; conditions: in vivo
[3] = (§1) Oral bioavailability in Sprague-Dawley rat at 224 umol/kg administered via gastric gavage; format: ADME, organism-based; conditions: Sprague-Dawley, in vivo, 224 umol/kg
HMC1 = assay: Cytotoxicity against HMC1 cells assessed as reduction in cell viability at 1.8 to 30 uM after 24 hrs by trypan blue assay relative to control; format: cell-based; conditions: human, hmc1, 24 h
SH-SY5Y [4] = assay: Neuroprotective activity against 6-OHDA-induced cell death in human SH-SY5Y cells assessed as apoptotic cells at 5 ug/ml pretreated for 1 hr followed by 6-OHDA challenge measured after 24 hrs by propidium iodide/RNase staining based flow cytometry (reference value: 31.56 %); format: functional
Rattus norvegicus [5] = assay: In vivo inhibition of P-gp in Sprague-Dawley rat assessed as increase in cyclosporine AUC at 112 uM/kg, po administered via gastric gavage coadministered with 2.5 mg/kg cyclosporine measured after 720 to 1440 mins by monoclonal fluorescence polarization assay relative to control; format: functional; set-up: scale not given: the % may be the effect or the level left
Rattus norvegicus [6] = assay: In vivo inhibition of P-gp in Sprague-Dawley rat assessed as increase in cyclosporine Cmax at 112 uM/kg, po administered via gastric gavage coadministered with 2.5 mg/kg cyclosporine measured after 720 to 1440 mins by monoclonal fluorescence polarization assay relative to control; format: functional; set-up: scale not given: the % may be the effect or the level left
Rattus norvegicus [7] = assay: In vivo inhibition of P-gp in Sprague-Dawley rat assessed as increase in nimodipine AUC at 8 mg/kg, po pretreated for 30 mins followed by nimodipine addition measured after 36 hrs by HPLC method relative to nimodipine alone; format: functional
NCI-H460 = assay: Cytotoxicity against human H460 cells assessed as reduction in cell viability at 50 uM after 72 hrs by trypan blue staining based assay relative to control; format: functional
DU-145 [8] = assay: Anti-tumor activity against human DU145 cells xenografted in SCID mouse assessed as tumor volume at 30 mg/kg, po administered once daily for 28 days measured every seven days during compound dosing (reference value: 314 +/- 54.8 mm3); format: functional
DU-145 [9] = assay: Anti-tumor activity against human DU145 cells xenografted in SCID mouse assessed as tumor volume at 20 mg/kg, po administered once daily for 28 days measured every seven days during compound dosing (reference value: 314 +/- 54.8 mm3); format: functional
DU-145 [10] = assay: Anti-tumor activity against human DU145 cells xenografted in SCID mouse assessed as tumor volume at 10 mg/kg, po administered once daily for 28 days measured every seven days during compound dosing (reference value: 314 +/- 54.8 mm3); format: functional
Rattus norvegicus [11] = assay: In vivo inhibition of CYP3A4 in Sprague-Dawley rat assessed as increase in cyclosporine Cmax at 112 uM/kg, po administered via gastric gavage coadministered with 2.5 mg/kg cyclosporine measured after 720 to 1440 mins by monoclonal fluorescence polarization assay relative to control; format: ADME, organism-based; set-up: scale not given: the % may be the effect or the level left
Cytochrome P450 3A4 = Cytochrome P450 3A4 (Homo sapiens, UniProt P08684); assay: Inhibition of human CYP3A4 expressed in baculovirus infected insect cells using 7-benzyloxy-4-trifluoromethylcoumarin as substrate measured after 45 mins in presence of NADPH by spectrofluorometric method; format: ADME
Rattus norvegicus [12] = assay: Neuroprotective activity in 6-OHDA-induced lesioned Sprague-Dawley rat assessed as increase in TH-immunopositive neurons at 200 mg/kg, ig administered once daily for 15 days measured on day 42 post 6-OHDA lesion induction by immunohistochemical analysis relative to control; format: functional
Rattus norvegicus [13] = assay: In vivo inhibition of P-gp in Sprague-Dawley rat assessed as increase in nimodipine AUC at 2 mg/kg, po pretreated for 30 mins followed by nimodipine addition measured after 36 hrs by HPLC method relative to nimodipine alone; format: functional
[14] = Apparent permeability of the compound; format: physicochemical; conditions: not told
Rattus norvegicus [15] = assay: In vivo inhibition of CYP3A4 in Sprague-Dawley rat assessed as increase in cyclosporine AUC at 112 uM/kg, po administered via gastric gavage coadministered with 2.5 mg/kg cyclosporine measured after 720 to 1440 mins by monoclonal fluorescence polarization assay relative to control; format: ADME, organism-based; set-up: scale not given: the % may be the effect or the level left
Rattus norvegicus [16] = assay: Anti-hyperplasia activity in carotid arterial balloon-injury-induced Sprague-Dawley rat neointimal hyperplasia model assessed as reduction in thickness of left carotid artery by measuring intima to media thickness ratio at 70 mg/kg administered once daily via gastric gavage from 3 days before balloon injury to 28 days after the injury measured post last dose by haematoxylin/eosin staining based assay relative to control; format: functional; set-up: scale not given: the % may be the effect or the level left
Rattus norvegicus [17] = assay: as §1; format: ADME, organism-based; conditions: in vivo
Mus musculus [18] = assay: Antiinflammatory activity in dextran sodium sulphate-induced C57BL/6 mouse colitis model assessed as disease activity index at 100 mg/kg, ig administered once daily pretreated for 3 days followed by DSS challenge and subsequent treatment for 7 days measured 24 hrs post last dose (reference value: 5.67 +/- 1.03); format: functional
[19] = Solubility of the compound in water; format: physicochemical; conditions: buffer
Mus musculus [20] = assay: Anti-inflammatory activity in adjuvant-induced C57BL/6 mouse arthritis model assessed as reduction in ankle swelling by measuring splenic Th17 cell population expansion at 100 mg/kg, ip administered once daily for 1 week starting from 14 days post-immunization measured by flow cytometry relative to control; format: functional; set-up: scale not given: the % may be the effect or the level left
Mus musculus [21] = assay: Anti-inflammatory activity in proteolipid protein 139-151/complete freund's adjuvant-induced SJL/J mouse autoimmune encephalomyelitis model assessed as reduction in clinical score at 5 to 10 mg/kg, ip administered once daily pretreated for 1 day followed by immunization and subsequent treatment for 3 days measured up to 6 days; format: functional
Rattus norvegicus [22] = assay: In vivo inhibition of CYP3A4 in Sprague-Dawley rat assessed as increase in cyclosporine Cmax at 112 uM/kg, po administered via gastric gavage coadministered with 2.5 mg/kg cyclosporine measured after 540 mins by monoclonal fluorescence polarization assay relative to control; format: ADME, organism-based; set-up: scale not given: the % may be the effect or the level left; conditions: 9 h
Rattus norvegicus [23] = assay: In vivo inhibition of CYP3A4 in Sprague-Dawley rat assessed as increase in cyclosporine AUC at 112 uM/kg, po administered via gastric gavage coadministered with 2.5 mg/kg cyclosporine measured after 540 mins by monoclonal fluorescence polarization assay relative to control; format: ADME, organism-based; set-up: scale not given: the % may be the effect or the level left; conditions: 9 h
Rattus norvegicus [24] = assay: In vivo inhibition of CYP1A2 in Sprague-Dawley rat assessed as increase in unbound phenacetin level in plasma at 450 mg/kg, iv coadministered with phenacetin by UV-HPLC method relative to phenacetin alone; format: ADME, organism-based
Rattus norvegicus [25] = assay: In vivo inhibition of P-gp in Sprague-Dawley rat assessed as increase in cyclosporine Cmax at 112 uM/kg, po administered via gastric gavage coadministered with 2.5 mg/kg cyclosporine measured after 540 mins by monoclonal fluorescence polarization assay relative to control; format: functional; set-up: scale not given: the % may be the effect or the level left
Rattus norvegicus [26] = assay: In vivo inhibition of P-gp in Sprague-Dawley rat assessed as increase in cyclosporine AUC at 112 uM/kg, po administered via gastric gavage coadministered with 2.5 mg/kg cyclosporine measured after 540 mins by monoclonal fluorescence polarization assay relative to control; format: functional; set-up: scale not given: the % may be the effect or the level left

Chain of Cytochrome P450 3A4 (P08684 whole entry): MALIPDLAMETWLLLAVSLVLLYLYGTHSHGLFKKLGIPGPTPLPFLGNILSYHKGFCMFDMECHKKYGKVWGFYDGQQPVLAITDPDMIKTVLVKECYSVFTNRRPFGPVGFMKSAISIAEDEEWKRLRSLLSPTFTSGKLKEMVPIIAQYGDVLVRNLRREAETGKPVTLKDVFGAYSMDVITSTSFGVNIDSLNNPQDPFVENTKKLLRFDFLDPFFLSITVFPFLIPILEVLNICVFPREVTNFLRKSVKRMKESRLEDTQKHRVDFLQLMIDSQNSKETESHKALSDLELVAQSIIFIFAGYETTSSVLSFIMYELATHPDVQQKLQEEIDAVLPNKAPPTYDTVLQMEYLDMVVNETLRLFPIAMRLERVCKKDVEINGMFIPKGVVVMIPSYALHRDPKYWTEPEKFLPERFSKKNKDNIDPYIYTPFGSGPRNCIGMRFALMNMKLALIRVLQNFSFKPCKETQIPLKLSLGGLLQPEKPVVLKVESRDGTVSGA

Compound `O=c1cc(-c2ccccc2)oc2cc(O)c(O)c(O)c12` [BAICALEIN] has an Activity (SH-SY5Y [1]) of 18.9%, a Tmax [2] of 0.167 h and a bioavailability [3] of 0%. The Activity (HMC1) was 93 to 95%, the Activity (SH-SY5Y [4]) was 21.61% and the Activity (Rattus norvegicus [5]) was 150.2%. For the same compound, the Activity (Rattus norvegicus [6]) was 87.5%, the “fold change (FC)” value (Rattus norvegicus [7]) was 1.6 and the Activity (NCI-H460) was 42%. The Activity (DU-145 [8]) was 183 mm3, the Activity (DU-145 [9]) was 114.2 mm3 and the Activity (DU-145 [10]) was 144.5 mm3. The Activity (Rattus norvegicus [11]) was 87.5%, the IC50 (Cytochrome P450 3A4) was 9.2 µM and the Activity (Rattus norvegicus [12]) was 265.52%. For the same compound, the “fold change (FC)” value (Rattus norvegicus [13]) was 1.4, the Papp [14] was 17 ×10⁻⁶ cm/s and the Activity (Rattus norvegicus [15]) was 150.2%.
For `O=C(O)[C@H]1O[C@@H](Oc2cc3oc(-c4ccccc4)cc(=O)c3c(O)c2O)[C@H](O)[C@@H](O)[C@@H]1O` [BAICALIN], the Tmax [2] was 6.6 h, the Activity (Rattus norvegicus [16]) was 55% and the F (Rattus norvegicus [17]) was 62%. For the same compound, the Activity_index (Mus musculus [18]) was 3.03, the solubility [19] was 52 µg/mL (≈ 116 µM) and the Activity (Mus musculus [20]) was 40%. It also gave an Activity (Mus musculus [21]) of 2.2, an Activity (Rattus norvegicus [22]) of 408.1% and an Activity (Rattus norvegicus [23]) of 685.3%. The “fold change (FC)” value (Rattus norvegicus [24]) was 2, the Activity (Rattus norvegicus [25]) was 408.1% and the Papp [14] was 0.037 ×10⁻⁶ cm/s. For the same compound, the Activity (Rattus norvegicus [26]) was 685.3%.
